pIC50: −log10 of the molar value. Like-named read-outs stand apart in the source and are kept apart here.
Test system: IL-1β production in PMA-differentiated THP-1 cells
Test: IL-1β production in PMA-differentiated THP-1 cells stimulated with gramicidin (hTHP-1 assay, 2% fetal bovine serum; Procedures 1-3)
Assay type: cell-based, human
Description: The following protocol is suitable for testing the activity of the compounds disclosed herein.
Procedure 1: IL-1β Production in PMA-Differentiated THP-1 Cells Stimulated with Gramicidin.
THP-1 cells were purchased from the American Type Culture Collection and sub-cultured according to instructions from the supplier. Cells were cultured in complete RPMI 1640 (containing 10% heat inactivated FBS, penicillin (100 units/ml) and streptomycin (100 μg/ml)), and maintained in log phase prior to experimental setup. Prior to the experiment, compounds were dissolved in dimethyl sulfoxide (DMSO) to generate a 30 mM stock. The compound stock was first pre-diluted in DMSO to 3, 0.34, 0.042 and 0.0083 mM intermediate concentrations and subsequently spotted using Echo550 liquid handler into an empty 384-well assay plate to achieve desired final concentration (e.g. 100, 33, 11, 3.7, 1.2, 0.41, 0.14, 0.046, 0.015, 0.0051, 0.0017 μM). DMSO was backfilled in the plate to achieve a final DMSO assay concentration of 0.37%. The plate was then sealed and stored at room temperature until required.
THP-1 cells were treated with PMA (Phorbol 12-myristate 13-acetate) (20 ng/ml) for 16-18 hours. On the day of the experiment the media was removed and adherent cells were detached with trypsin for 5 minutes. Cells were then harvested, washed with complete RPMI 1640, spun down, and resuspended in RPMI 1640 (containing 2% heat inactivated FBS, penicillin (100 units/ml) and streptomycin (100 μg/ml). The cells were plated in the 384-well assay plate containing the spotted compounds at a density of 50,000 cells/well (final assay volume 50 μl). Cells were incubated with compounds for 1 hour and then stimulated with gramicidin (5 μM) (Enzo) for 2 hours. Plates were then centrifuged at 340 g for 5 min. Cell free supernatant (40 μL) was collected using a 96-channel PlateMaster (Gilson) and the production of IL-1β was evaluated by HTRF (cisbio). The plates were incubated for 18 h at 4° C. and read using the preset HTRF program (donor emission at 620 nm, acceptor emission at 668 nm) of the SpectraMax i3x spectrophotometer (Molecular Devices, software SoftMax 6). A vehicle only control and a dose titration of CRID3 (100-0.0017 μM) were run concurrently with each experiment.
Procedure 2: IL-1β Production in PMA-Differentiated THP-1 Cells Stimulated with Gramicidin.
THP-1 cells were purchased from the American Type Culture Collection and sub-cultured according to instructions from the supplier. Prior to experiments, cells were cultured in complete RPMI 1640 (containing 10% heat inactivated FBS, penicillin (100 units/ml) and streptomycin (100 μg/ml)), and maintained in log phase prior to experimental setup. Prior to the experiment THP-1 were treated with PMA (Phorbol 12-myristate 13-acetate) (20 ng/ml) for 16-18 hours. Compounds were dissolved in dimethyl sulfoxide (DMSO) to generate a 30 mM stock. On the day of the experiment the media was removed and adherent cells were detached with trypsin for 5 minutes. Cells were then harvested, washed with complete RPMI 1640, spun down, resuspended in RPMI 1640 (containing 2% heat inactivated FBS, penicillin (100 units/ml) and streptomycin (100 μg/ml) . The cells were plated in a 384-well plate at a density of 50,000 cells/well (final assay volume 50 μl). Compounds were first dissolved in assay medium to obtain a 5× top concentration of 500 μM. 10 step dilutions (1:3) were then undertaken in assay medium containing 1.67% DMSO. 5× compound solutions were added to the culture medium to achieve desired final concentration (e.g. 100, 33, 11, 3.7, 1.2, 0.41, 0.14, 0.046, 0.015, 0.0051, 0.0017 μM). Final DMSO concentration was at 0.37%. Cells were incubated with compounds for 1 hour and then stimulated with gramicidin (5 μM) (Enzo) for 2 hours. Plates were then centrifuged at 340 g for 5 min. Cell free supernatant (40 μL) was collected using a 96-channel PlateMaster (Gilson) and the production of IL-1β was evaluated by HTRF (cisbio). […]

[1] = Table B3, hTHP-1 assay containing 2% fetal bovine serum, gramicidin stimulation, IL-1β readout, read-out: hTHP-1 IC50
[2] = Homo sapiens, THP-1, hTHP-1 assay containing 2% fetal bovine serum, Table B2, class symbols, read-out: IC50
[3] = Table B1, hTHP-1 assay containing 2% fetal bovine serum, gramicidin stimulation, IL-1β readout, read-out: hTHP-1 IC50 (average)
[4] = Homo sapiens, THP-1, hTHP-1 assay containing 2% fetal bovine serum, Table B2, given as bound, read-out: IC50
[5] = Homo sapiens, THP-1, Table B3, hTHP-1 assay containing 2% fetal bovine serum, gramicidin stimulation, IL-1β readout, read-out: hTHP-1 IC50
[6] = hTHP-1 assay containing 2% fetal bovine serum, Table B2, class symbols, read-out: IC50

NS(=O)(=NC(=O)Nc1c2c(cc3c1CCC3)CCC2)c1ccc(-c2ccccc2)s1 (single isomer, unassigned) [Example 800, (S) or (R)-N′-((1,2,3,5,6,7-hexahydro-s-indacen-4-yl)carbamoyl)-5-phenylthiophene-2-sulfonimidamide]
pIC50 [1]: < 4.52

CNCc1ccc(S(N)(=O)=NC(=O)Nc2c3c(cc4c2CC4)CCC3)cc1 (centres unmarked) [Example 448, 4-((Methylamino)methyl)-N′-((2,4,5,6-tetrahydro-1H-cyclobuta[f]inden-3-yl)carbamoyl)benzenesulfonimidamide]
pIC50 [2]: 5.30 to 6.00

NS(=O)(=NC(=O)Nc1c2c(cc3c1CC3)CCC2)c1ccc(CN2CCC2)cc1F (centres unmarked) [Example 463, 4-(azetidin-1-ylmethyl)-2-fluoro-N′-((2,4,5,6-tetrahydro-1H-cyclobuta[f]inden-3-yl)carbamoyl)benzenesulfonimidamide]
pIC50 [2]: 5.30 to 6.00

CC(C)(O)c1csc(S(N)(=O)=NC(=O)Nc2c3c(cc4c2OCC4)CCC3)n1 (single isomer, unassigned) [Example 354, (R) or (S)-4-(2-hydroxy-propan-2-yl)-N′-((3,5,6,7-tetrahydro-2H-indeno-[5,6-b]furan-8-yl)carbam-oyl)thiazole-2-sulfonimid-amide]
pIC50 [3]: 7.40 to 8.10

CC(C)(O)c1ccc(S(N)(=O)=NC(=O)Nc2cc3c(c4c2CCC4)CCC3)cn1 (single isomer, unassigned) [Example 590, (S) or (R)-N′-((1,2,3,6,7,8-hexahydro-as-indacen-4-yl)carbamoyl)-6-(2-hydroxypropan-2-yl)pyridine-3-sulfonimidamide]
pIC50 [4]: < 4.52

CN1CCC[C@H](c2ccc([S@](N)(=O)=NC(=O)Nc3c4c(cc5c3CC5)CCC4)c(F)c2)C1 [Compound 911b]
pIC50 [2]: 5.30 to 6.00

CN(Cc1ccc(S(N)(=O)=NC(=O)Nc2c3c(cc4c2CCC4)CCC3)cc1)CC(F)(F)F (centres unmarked) [Example 487, N′-((1,2,3,5,6,7-hexahydro-s-indacen-4-yl)carbamoyl)-4-((methyl(2,2,2-trifluoroethyl)amino)methyl) benzenesulfonimidamide]
pIC50 [2]: 5.30 to 6.00

CN1CCCC(c2ccc(S(N)(=O)=NC(=O)Nc3c4c(cc5c3CC5)CCC4)c(F)c2)C1 (centres unmarked) [Compound 911]
pIC50 [2]: 5.30 to 6.00

CCC(C)NCc1ccc([S@](N)(=O)=NC(=O)Nc2c3c(cc4c2CCC4)CCC3)cc1 (stereo partly drawn) [Example 702, (R)-4-((sec-butylamino)methyl)-N′-((1,2,3,5,6,7-hexahydro-s-indacen-4-yl)carbamoyl)-benzenesulfonimidamide]
pIC50 [2]: 5.30 to 6.00

C[C@](O)(COCCOCCOCCOCCOCc1ccccc1)c1ncc(S(N)(=O)=NC(=O)Nc2c3c(cc4c2CCC4)CCC3)s1 (stereo partly drawn) [Example 761, N-((1,2,3,5,6,7-hexahvdro-s-indacen-4-yl)carbamoyl)-2-((S)-16-hydroxy-1-phenyl-2,5,8,11,14-pentaoxaheptadecan-16-yl)thiazole-5-sulfonimidamide]
pIC50 [5]: 6.00 to 6.70

CN1CCc2sc(S(N)(=O)=NC(=O)Nc3c4c(cc5c3CC5)CCC4)c(F)c2C1 (single isomer, unassigned) [Example 835, (R) or (S)-3-fluoro-5-methyl-N′-((2,4,5,6-tetrahydro-1H-cyclobuta[f]inden-3-yl)carbamoyl)-4,5,6,7-tetrahydrothieno[3,2-c]pyridine-2-sulfonimidamide]
pIC50 [1]: 6.70 to 7.40

Cc1c(C2CC2)cc2c(c1NC(=O)N=S(N)(=O)c1cnc(C(C)(C)O)s1)CCC2 (centres unmarked) [Example 468]
pIC50 [2]: 6.70 to 7.40

CC(C)(O)c1nc(CO)c(S(N)(=O)=NC(=O)Nc2c3c(cc4c2C(=O)CC4)CCC3)s1 (centres unmarked) [Example 738, 4-(Hydroxymethyl)-2-(2-hydroxypropan-2-yl)-N-((3-oxo-1,2,3,5,6,7-hexahydro-s-indacen-4-yl)carbamoyl)thiazole-5-sulfonimidamide]
pIC50 [5]: 5.30 to 6.00

CC(C)(O)c1cc(S(N)(=O)=NC(=O)Nc2c3c(cc4c2CCC4)CCC3)sc1-c1ccccc1 (centres unmarked) [Example 477, N′-((1,2,3,5,6,7-hexahydro-s-indacen-4-yl)carbamoyl)-4-(2-hydroxypropan-2-yl)-5-phenylthiophene-2-sulfomidamide]
pIC50 [6]: 6.00 to 6.70

CN(C)Cc1ccc(S(N)(=O)=NC(=O)Nc2c3c(cc4c2CCC4)CCC3)nc1 (single isomer, unassigned) [Example 413, (R) or (S)-5-((dimethyl-amino)methyl)-N′-((1,2,3,5,6,7-hexahydro-s-indacen-4-yl)carbamoyl)-pyridine-2-sulfonimid-amide]
pIC50 [3]: 6.00 to 6.70

CC(C)(O)c1cnc([S@@](N)(=O)=NC(=O)Nc2c3c(cc4c2CCC4O)CCC3)s1 (stereo partly drawn) [Example 509, (S)-N′-((1-hydroxy-1,2,3,5,6,7-hexahydro-s-indacen-4-yl)carbamoyl)-5-(2-hydroxypropan-2-yl)thiazole-2-sulfonimidamide]
pIC50 [4]: < 4.52

C/C=C/c1c2c(c(NC(=O)N=S(N)(=O)c3cc(C(C)(C)O)n(-c4ccccc4)n3)c3c1CCC3)CCC2 (centres unmarked) [Example 459, (E)-5-(2-hydroxypropan-2-yl)-1-phenyl-N′-((8-(prop-1-en-1-yl)-1,2,3,5,6,7-hexahydro-s-indacen-4-yl)carbamoyl)-1H-pyrazole-3-sulfonimidamide]
pIC50 [2]: 5.30 to 6.00

NS(=O)(=NC(=O)Nc1c2c(cc3c1CCC3)CCC2)c1ccc(-c2ccccc2)s1 (centres unmarked) [Example 759, N′-((1,2,3,5,6,7-hexahydro-s-indacen-4-yl)carbamoyl)-5-phenylthiophene-2-sulfonimidamide]
pIC50 [5]: 4.52 to 5.30

C[C@H](N[S@](=O)(=NC(=O)Nc1c2c(cc3c1CCC3)CCC2)c1cnc(C(C)(C)O)s1)c1ccccc1 [Compound 887b]
pIC50 [4]: < 4.52

NS(=O)(=NC(=O)Nc1c2c(cc3c1CCC3)CCC2)c1ccc(C2CCNC2)cc1F (single isomer, unassigned) [Example 622, (R,S) or (S,S)-2-fluoro-N′-((1,2,3,5,6,7-hexahydro-s-indacen-4-yl)carbamoyl)-4-pyrrolidin-3-yl) benzenesulfonimidamide]
pIC50 [4]: < 4.52

CN(Cc1ccc(S(N)(=O)=NC(=O)Nc2c3c(cc4c2CCC4)CCC3)cc1)CC(F)F (single isomer, unassigned) [Example 611, (S) or (R)-4-(((2,2-difluoroethyl) (methyl)amino)methyl)-N′-((1,2,3,5,6,7-hexahydro-s-indacen-4-yl)carbamoyl) benzenesulfonimidamide]
pIC50 [4]: < 4.52

CN[C@H](c1ccc(S(N)(=O)=NC(=O)Nc2c3c(cc4c2CC4)CCC3)s1)C1CC1 (single isomer, unassigned) [Example 867, (S, S) or (R, S)-5-(cyclopropyl(methylamino)methyl)-N′-((2,4,5,6-tetrahydro-1H-cyclobuta[f]inden-3-yl)carbamoyl)thiophene-2-sulfonimidamide]
pIC50 [1]: 5.30 to 6.00

CC(O)(CO)c1ncc(S(N)(=O)=NC(=O)Nc2c3c(cc4c2CCC4)CCC3)s1 (single isomer, unassigned) [Example 628, (S,S) or (R,S)-1,2-dihydroxypropan-2-yl)-N′-((l,2,3,5,6,7-hexahydro-s-indacen-4-yl) carbamoyl) thiazole-5-sulfonimidamide]
pIC50 [6]: 6.00 to 6.70

From patent publication US20230051589A1, “COMPOUNDS AND COMPOSITIONS FOR TREATING CONDITIONS ASSOCIATED WITH NLRP ACTIVITY” (Novartis AG, priority 2018, published 2023)
